Reference: patent US7596407B2, “Transdermal iontophoretic delivery of piperazinyl-2(3H)-benzoxazolone compounds” (priority 2004, dated 2009)

Columns and labels:
[1] = Iontophoretic transport across hairless rat skin, vertical Franz diffusion cells; type: in vitro ADME; settings: 30 mM NaCl; for change of iontophoretic flux with active substance concentration (FIG. 4): phosphate buffer pH 4.0
Excerpt: Hairless rats were euthanized by inhalation of carbon dioxide using an exposure chamber designed for such use half hour before start of experiment. The skin from the abdomen was carefully removed, making sure no muscle or fat was attached to the skin. The skin was then cut into small squares to fit the Franz diffusion set (Membrane Transport System, PermeGear, U.S.A) and placed in 0.1 M potassium phosphate buffer until mounted.
(§1) 7-(4-methyl-1-piperazinyl)-2(3H)-benzoxazolone as a HCl salt was dissolved in 10 mM sodium citrate solution. The pH was adjusted to pH 5.5 with 10 mM citric acid. 7-(4-benzyl-1-piperazinyl)-2(3H)-benzoxazolone as a mesylate salt was dissolved in 0.1 M potassium phosphate buffer. The pH was adjusted to pH 4.0 using o-phosphoric acid.
Iontophoresis experiments with 7-(4-benzyl-1-piperazinyl)-2(3H)-benzoxazolone were performed using vertical Franz diffusion cells (Membrane Transport System, PermeGear, U.S.A) hooked up to a Keithley 2400 source meter and the current monitored using a multimeter. The donor half was of the cell was exposed to room temperature (25° C.) while the receptor half was maintained at 37° C. Receptor compartment was continuously stirred. Freshly excised hairless rat skin was mounted on the vertical diffusion cells, after the receptor compartment had been filled with a suitable receptor media, which can maintain the sink condition. The receptor media had the same composition as the donor solution without the drug, so that the sink conditions could be maintained. The formulation was placed in the donor compartment. A silver wire was used as the anode in the donor and a silver/silver chloride wire was used as the cathode in the receptor. Current was applied for 3 hours using a constant current power source. However, sampling was continued till 24 hrs to see if enhanced delivery will stop on terminating current. Samples were taken at pre-determined time intervals from the receptor and analyzed by the HPLC as described below. Samples were replaced with fresh receptor medium and this was taken into consideration in the calculations.
7-(4-benzyl-1-piperazinyl)-2(3H)-benzoxazolone was analyzed using HPLC with UV detection (Waters Alliance system). A Chromsep SS column was used (150*3 mm L*i.d.) with particle size of 5 μm thermostatted at 40° C. The mobile phase was made using 1.54 g ammonium acetate in 460 ml of water (pH adjusted to 4.6 using acetic acid) and 540 ml of methanol and degassed. The flow rate was 0.5 ml/min. The detection wavelength was 243 nm. Injection volume was 10 μl.

[2] = Iontophoretic transport across human stratum corneum, three-chamber continuous flow-through diffusion cells; type: in vitro ADME; settings: for iontophoretic flux (averages±s.e.m.): 4 g/l NaCl, citrate buffer pH 5.5, 0.5 mA/cm^2; for mean transport during the iontophoretic period: citrate buffer pH 5.5, 0.5 mA/cm^2, no NaCl added; for mean transport during the iontophoretic period (averages±s.e.m.): drug 35 mg/ml, pH 5.5, 0.5 mA/cm^2
Protocol: Human Stratum Corneum (HSC) was prepared from dermatomed healthy human skin. Within 24 hours after surgical removal of the human skin (abdominal or breast), residual subcutaneous fat was removed. To avoid interference with contaminating subcutaneous fat, the skin surface was carefully wiped with a tissue paper soaked in 70% ethanol. The skin was dermatomed to a thickness of about 300 μm using a Padgett Electro Dermatome Model B (Kansas City, USA). It was then incubated with the dermal side on Whatman paper soaked in a solution of 0.1% trypsin in PBS overnight at 4° C. and subsequently for 1 hour at 37° C. Then HSC was peeled off from the underlying epidermis and dermis. Remaining trypsin activity was blocked by bathing HSC in a 0.1% trypsin inhibitor solution in PBS, pH 7.4. HSC was washed several times in water and stored in a silica gel containing desiccator in a N2 environment to inhibit oxidation of lipids.
as §1
Iontophoresis experiments with 7-(4-methyl-1-piperazinyl)-2(3H)-benzoxazolone were performed using 9-channel computer controlled power supply to provide constant current (Electronics Department, Gorlaeus Laboratories, Leiden University, The Netherlands.) Alternatively the commercial available Power Supply PCT-MK1 of Moor Instruments, UK can be used. A silver plate electrode was used as an anode (e.g. Silver foil >99.99% pure, 1.0 mm thick (Aldrich article nr. 36,943-8), 5 cm long, 3 mm wide) and a silver/silver chloride electrode (prepared by repeatedly (2 or 3 times) dipping silver wire (>99.99% pure, Ø 1.0 mm (Aldrich art. Nr. 26,559-4), bended at the tip to produce a small projection (approx. 3 mm) at a right angle to the vertical electrode shaft in melted silver chloride powder (>99.999% pure, Aldrich art. Nr. 20,438-2) as a cathode. (Alternatively, the silver plate and silver/silver chloride electrodes can be prepared according to chapter 3.4.3. of Ajay K. Banga, Electrically Assisted Transdermal and Topical Drug Delivery, Taylor and Francis Group Ltd., London UK, 1998, ISBN 0-7484-0687-5. or can be purchased from a commercial supplier such as Iomed.)
All diffusion experiments were carried out at a constant current density of 0.5 mA/cm^2, using three chambers continuous flow through diffusion cells at room temperature. The diffusion set up consisted of a peristaltic pump, a fraction collector and 8 diffusion cells (for diffusion cell see FIG. 4). Stratum corneum was used for all diffusion studies. Human stratum corneum was hydrated for two hours in PBS pH 7.4 prior to mounting in the cells. Two pieces of stratum corneum were placed between the anodal and acceptor side, and between acceptor and cathodal side, with the apical side facing the anodal and cathodal compartments. Dialysis membrane (cut off 5,000 D) was used as supporting membrane for the stratum corneum. Parafilm rings were added for making a tight connection between the compartments. The temperature of the acceptor chamber was 37° C. The flow of PBS through the acceptor chamber was kept approximately constant for each cell during the experiment: 6-8 ml per hour. After six hours of passive diffusion, the current was switched on. The current was switched off at t=15 h. During a period of another 5 hours (post iontophoretic period) passive diffusion post iontophoresis was carried out. During iontophoresis, the current density was 0.5 mA/cm^2. The total resistance of the stratum corneum sheets was monitored during the experiment with two additional silver electrodes. A very low resistance is indicative of leakage of the stratum corneum in a cell. When this was observed, the diffusion data obtained were discarded. […]

[3] = HPLC-UV analysis of sample solutions for oxidation or degradation products; type: physicochemical; settings: HPLC with UV detection, 215 nm
Protocol: 7-(4-methyl-1-piperazinyl)-2(3H)-benzoxazolone was analyzed using HPLC with UV detection (Waters Chromatography, Etten Leur, The Netherlands). A Chromsep SS column was used (250*3 mm L*i.d.) thermostatted at 30° C. The mobile phase consisted of acetonitrile/methanol/0.7 g/l ammonium acetate buffer at pH 5.6 ([…] v/v) and was used at 0.5 ml/min. The detection wavelength was 215 nm.

[4] = Solubility in donor buffer

## CS(=O)(=O)O.O=c1[nH]c2cccc(N3CCN(Cc4ccccc4)CC3)c2o1 [7-(4-benzyl-1-piperazinyl)-2(3H)-benzoxazolone mesylate]
[1]; current densities 0, 0.1, 0.3 and 0.5 mA
  permeation with iontophoresis as compared to passive delivery (FIG. 5): considerably enhances the permeation
[1]; 5 g/ml solution, current densities 0, 0.1, 0.3 and 0.5 mA
  relationship between flux and current density (FIG. 5): linear relationship between flux and current density
[1]; further increase to 10 mg/ml
  change of iontophoretic flux with active substance concentration (FIG. 4): no increase in iontophoretic flux
[1]; increase from 1 mg/ml to 5 mg/ml
  change of iontophoretic flux with active substance concentration (FIG. 4): increase in iontophoretic flux

## CN1CCN(c2cccc3[nH]c(=O)oc23)CC1.Cl [7-(4-methyl-1-piperazinyl)-2(3H)-benzoxazolone monohydrochloride]
[2]; donor concentration 20 mg/ml
  iontophoretic flux (averages±s.e.m.): 409±47 μg/hr/cm^2
  mean transport during the iontophoretic period: 394±26 μg/hr/cm^2
[2]; donor concentration 35 mg/ml
  iontophoretic flux (averages±s.e.m.): 467±74 μg/hr/cm^2
  mean transport during the iontophoretic period: 383±42 μg/hr/cm^2
[2]; donor concentration 55 mg/ml
  iontophoretic flux (averages±s.e.m.): 580±87 μg/hr/cm^2
  mean transport during the iontophoretic period: 459±59 μg/hr/cm^2
[2]; donor concentration 75 mg/ml
  mean transport during the iontophoretic period: 418±31 μg/hr/cm^2
[2]; sodium chloride 0 mg/ml
  mean transport during the iontophoretic period (averages±s.e.m.): 471±65 μg/hr/cm^2
[2]; sodium chloride 2 mg/ml
  mean transport during the iontophoretic period (averages±s.e.m.): 377±37 μg/hr/cm^2
[2]; sodium chloride 4 mg/ml
  mean transport during the iontophoretic period (averages±s.e.m.): 424±50 μg/hr/cm^2
[3]
  oxidation or degradation products in chromatograms of the sample solutions: No oxidation or degradation products of the compound were observed
[4]; 35 mg/ml, 10 mM citrate pH 5.5, 4 mg/ml NaCl
  share of the maximum solubility that a 35 mg/ml solution represents: 80%
[4]; 55 mg/ml in citrate buffer at pH 5.5 in the presence of 4 g/l NaCl
  share of the maximum solubility that a 55 mg/ml solution represents: 85%
[4]; 75 mg/ml in citrate buffer at pH 5.5
  share of the maximum solubility that a 75 mg/ml solution represents: 85%
[4]; citrate pH 5.5, NaCl 0-4 mg/ml
  dependence of solubility on NaCl concentration: increases with reducing NaCl concentration
